Laboratory results reported in PubChem BioAssay (NCI).
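Test compounds were applied to cells in 96-well plates for 48 hours at 5 doses. TGI: concentration producing complete growth inhibition.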

Key:
Experiment in all cases: growth of human tumour cells (NCI), 48 h
SK-MEL-2 melanoma = system: SK-MEL-2 melanoma
LXFL 529 NSCLC = system: LXFL 529 NSCLC
XF 498 CNS = system: XF 498 CNS
U251 CNS = system: U251 CNS
DMS 273 small cell lung = system: DMS 273 small cell lung
SK-OV-3 ovarian = system: SK-OV-3 ovarian
OVCAR-4 ovarian = system: OVCAR-4 ovarian
NCI-H226 lung = system: NCI-H226 lung
DLD-1 colon = system: DLD-1 colon
MALME-3M melanoma = system: MALME-3M melanoma
KM20L2 colon = system: KM20L2 colon
CAKI-1 renal = system: CAKI-1 renal
MCF7 breast = system: MCF7 breast
RXF 393 renal = system: RXF 393 renal
HOP-62 NSCLC = system: HOP-62 NSCLC
NCI/ADR-RES ovarian = system: NCI/ADR-RES ovarian
MDA-MB-435 = system: MDA-MB-435
HCC-2998 colon = system: HCC-2998 colon
OVCAR-5 ovarian = system: OVCAR-5 ovarian
SN12K1 renal = system: SN12K1 renal

O=C1NP23(OCCO2)Oc2ccccc2C3(C(F)(F)F)O1 (stereo not given)
TGI (SK-MEL-2 melanoma): > 100 µM | TGI (LXFL 529 NSCLC): > 100 µM | TGI (XF 498 CNS): > 100 µM | TGI (U251 CNS): > 100 µM | TGI (DMS 273 small cell lung): > 100 µM | TGI (SK-OV-3 ovarian): > 100 µM | TGI (OVCAR-4 ovarian): > 100 µM | TGI (NCI-H226 lung): > 100 µM | TGI (DLD-1 colon): > 100 µM | TGI (MALME-3M melanoma): > 100 µM

COc1ccc(/C(Cl)=C(\C=O)c2ccc(OC)c(OC)c2)cc1
TGI (SK-MEL-2 melanoma): 76.6 µM | TGI (LXFL 529 NSCLC): > 100 µM | TGI (XF 498 CNS): 56.1 µM | TGI (U251 CNS): > 100 µM | TGI (SK-OV-3 ovarian): > 100 µM | TGI (KM20L2 colon): > 100 µM | TGI (NCI-H226 lung): > 100 µM | TGI (CAKI-1 renal): > 100 µM | TGI (MALME-3M melanoma): > 100 µM

CC(=O)O/C(=C1\C[C@H]2[C@@H]3CC=C4C[C@@H](OC(C)=O)CC[C@]4(C)[C@H]3CC[C@]2(C)C1=O)C(F)(F)F
TGI (SK-MEL-2 melanoma): 17.2 µM | TGI (U251 CNS): 17.7 µM | TGI (MCF7 breast): 17.8 µM | TGI (RXF 393 renal): 15 µM | TGI (HOP-62 NSCLC): 32.8 µM | TGI (NCI/ADR-RES ovarian): 46.6 µM | TGI (MDA-MB-435): 16.4 µM | TGI (HCC-2998 colon): 19 µM | TGI (SK-OV-3 ovarian): 44.5 µM | TGI (OVCAR-4 ovarian): 61.4 µM | TGI (NCI-H226 lung): 40.7 µM | TGI (CAKI-1 renal): 24.3 µM | TGI (OVCAR-5 ovarian): 58.6 µM | TGI (MALME-3M melanoma): 9.53 µM

COc1cc(N=Nc2cccc(S(=O)(=O)O)c2)ccc1N=Nc1ccc(/C=C/c2ccc(-n3on3-c3ccc(/C=C/c4ccc(N=Nc5ccc(N=Nc6cccc(S(=O)(=O)O)c6)cc5OC)cc4S(=O)(=O)O)c(S(=O)(=O)O)c3)cc2S(=O)(=O)O)c(S(=O)(=O)O)c1
TGI (SK-MEL-2 melanoma): > 100 µM | TGI (XF 498 CNS): > 100 µM | TGI (U251 CNS): > 100 µM | TGI (DMS 273 small cell lung): > 100 µM | TGI (MCF7 breast): > 100 µM | TGI (RXF 393 renal): > 100 µM | TGI (HOP-62 NSCLC): > 100 µM | TGI (NCI/ADR-RES ovarian): > 100 µM | TGI (HCC-2998 colon): > 100 µM | TGI (SK-OV-3 ovarian): > 100 µM | TGI (KM20L2 colon): > 100 µM | TGI (OVCAR-4 ovarian): > 100 µM | TGI (NCI-H226 lung): > 100 µM | TGI (DLD-1 colon): > 100 µM | TGI (SN12K1 renal): > 100 µM | TGI (OVCAR-5 ovarian): > 100 µM | TGI (MALME-3M melanoma): > 100 µM
